Series [1] deals with Dahl S rats. Kind of series: Dahl salt-sensitive rat model of hypertension-induced FSGS. It is filed as in vivo. As for the experimental part:
Animals and chemicals: Littermates of wild-type (WT) and AT1R TgNeph-hAT1R/185 transgenic (AT1R Tg) rats were housed under a controlled environment with a 12-hour light-dark cycle and access to food and water ad libitum, unless otherwise described. All animal experiments were performed in accordance to the guidelines established and approved by the Animal Care and Use Committee at Brigham and Women's Hospital, Harvard Medical School (Animal Protocol No. 01538). AT1R Tg rats were placed in the Onset cohort when measured proteinuria was >5 mg/day (at approximately 12 weeks of age) on two separate 24-hour urine collections. AT1R Tg rats were placed in the Advanced cohort when measured proteinuria was >25 mg/day (at approximately 18 weeks of age) on two separate 24-hour urine collections. These thresholds were determined after detailed histologic and phenotypic characterization of AT1R Tg rats compared to WT littermates (all combined, n=91 WT rats and n=122 AT1R Tg rats were studied). The Dahl salt-sensitive (S) inbred strain is maintained at University of Mississippi Medical Center (UMMC) and was originally obtained from University of Toledo-College of Medicine (SS/Jr). All animal experiments performed at UMMC were in accordance to the guidelines established and approved by the Institutional Animal Care and Use Committee. Animals used for this studied were provided either low-salt diet [TD7034, 0.3% NaCl and/or high-salt diet [TD94217, 2.0% NaCl] from Harlan Teklad, Madison, Wis. For onset study, at 4 weeks of age, groups of age-matched male S were weaned to the low-salt diet and divided into two groups: vehicle (n=8) and AC1903 groups (n=8). At 6 weeks of age, both groups were placed on the high-salt diet and concurrently treated with either vehicle or AC1903 for 1-week (Onset). For Advanced study, similarly at 4 weeks of age, groups of age-matched male S were weaned to the low-salt diet and divided into two groups: vehicle (n=9) and AC1903 groups (n=11). At 6 weeks of age, both groups were placed on the high-salt diet. At week 7, concurrent with high-salt diet, animals were treated with either vehicle or AC1903 for 1-week (Advanced). At the conclusion of each study, animals were initially anesthetized under 2-3% isoflurane/O2 gas, a catheter attached to a fluid filled pressure transducer was placed in the aorta, isoflurane gas was reduced to 1.5%, and mean arterial pressure was measured for ˜5 min period using PowerLab 4/30 system (ADI Instruments, Co) as done previously. All chemicals were purchased from Sigma-Aldrich unless otherwise described.
Chemical preparation and IP administration: ML204 and AC1903 were prepared from powder in a single batch for each in vivo experiment to avoid variability. Immediately prior to injections, ML204 or AC1903 solution was placed on a heated shaker at 48° C. and 800 RPM. Vehicle was prepared in the same fashion. Injection volume was determined by body weight (2 mL vehicle/compound per kg body weight). Body weight was measured at the time of injection.
Urine collection and assay: For urine collections, rats were housed individually in a metabolic cage supplied with food and water. Urine was collected into a 50 mL falcon tube for 24 hours. Total urine volume was measured and then centrifuged at 3,200 rcf for 10 min at 4° C. Albumin quantification was done according to previously published protocol (11), involving multiple dilutions of urine from each animal compared to Bovine Serum Albumin (BSA) standards. Coumassie Blue stained gels were quantified by densitometry using ImageJ software. As an additional control, the rat ELISA Albumin kit (Exocell) was used for albumin quantification according to the manufacturer's recommendations and yielded the same results. Urine protein was measured using QuanTtest® Red Total Protein Assay System (Quantimetrix, Redondo Beach, Calif.) and expressed as mg protein/24 hours. […]

The test system of series [2] is kinase. Kind of series: standard kinase profiling assays. In kind it is biochemical.

With `c1ccc(Cn2c(NCc3ccco3)nc3ccccc32)cc1` [AC1903], the “numbers of podocytes per glomerulus” value in series [1] (AC1903 treated Dahl S rats, stated similar to WT and AC1903-treated AT1R Tg rats) was “approximately 120 podocytes/glom”. In series [1] (AC1903 treatment), the BUN result was “no effect”, the body weight result was “no effect”, the creatinine entry is recorded as “no effect” and the “mean arterial pressure (MAP)” value is given as “did not affect”. Also, in series [1] (Advanced, AC1903 50 mg/kg), the “numbers of podocytes per glomerulus compared to vehicle-treated controls” value is recorded as “higher”. Further, the proteinuria result in series [1] (Advanced: 50 mg/kg, treatment day 7 to day 14 of 2% NaCl) is recorded as “significant suppression of proteinuria”. Moreover, the “rate of progressive proteinuria” value in series [1] (Onset: 50 mg/kg twice daily i.p. from start of 2% NaCl diet, 1 week) is recorded as “significantly reduced”. For the same molecule, the “off-target effects in kinase profiling” value in series [2] is “not found to have any off-target effects”.

For the origin of these results see US11370769B2, “TRPC5 inhibitors and methods of using same” (BOARD OF REGENTS OF THE UNIVERSITY OF NEBRASKA, priority 2017, dated 2022).
